{
  "source": "patent US20070212690A1",
  "about": "“Folate Antagonists Having Improved Selectivity” (Serenex, Inc., priority 2003, published 2007)",
  "key": {"DHFR": {"tested_on": "DHFR", "test": "Elution of purine-binding proteins from ATP-Sepharose column with the compound", "design": "species or system porcine liver, porcine lidney, HeLa cells, whole mice", "conditions": "lysate on ATP-Sepharose; methotrexate 10 nM to 500 μM; SDS gel, silver stain, MALDI", "protocol": "(§1) Molecular targets for the folate antagonist methotrexate were identified as follows. Cell or tissue lysates were produced from porcine liver, porcine lidney, HeLa cells, and whole mice. This lysate was run over an ATP-Sepharose™ column in order to extract all purine-binding proteins. […] The ATP-Sepharose™ washed several times, and then eluted with methotrexate at concentrations ranging from 10 nM to 500 μM to identify proteins that bound to this compound. The eluted fractions were run on a 1-dimensional SDS polyacrylamide gel. The eluted proteins were then stained with silver stain, cut out of the gel, and identified using matrix-assisted laser deionization/ionization (MALDI). […] The experiment was also repeated using folate to elute the purine binding proteome from the ATP-Sepharose column."}, "glutathione synthase": {"tested_on": "glutathione synthase", "test": "Elution of purine-binding proteins from ATP-Sepharose column with the compound", "design": "species or system porcine liver, porcine lidney, HeLa cells, whole mice", "conditions": "lysate on ATP-Sepharose; methotrexate 10 nM to 500 μM; SDS gel, silver stain, MALDI", "protocol": "as §1"}, "pyruvate carboxylase": {"tested_on": "pyruvate carboxylase", "test": "Elution of purine-binding proteins from ATP-Sepharose column with the compound", "design": "species or system porcine liver, porcine lidney, HeLa cells, whole mice", "conditions": "lysate on ATP-Sepharose; methotrexate 10 nM to 500 μM; SDS gel, silver stain, MALDI", "protocol": "as §1"}, "[1]": {"tested_on": "propionyl-CoA carboxylase", "test": "Elution of purine-binding proteins from ATP-Sepharose column with the compound", "design": "species or system porcine liver, porcine lidney, HeLa cells, whole mice", "conditions": "lysate on ATP-Sepharose; methotrexate 10 nM to 500 μM; SDS gel, silver stain, MALDI", "protocol": "as §1"}, "biotin carboxylase": {"tested_on": "biotin carboxylase", "test": "Elution of purine-binding proteins from ATP-Sepharose column with the compound", "design": "species or system porcine liver, porcine lidney, HeLa cells, whole mice", "conditions": "lysate on ATP-Sepharose; methotrexate 10 nM to 500 μM; SDS gel, silver stain, MALDI", "protocol": "(§2) Molecular targets for the folate antagonist methotrexate were identified as follows. Cell or tissue lysates were produced from porcine liver, porcine lidney, HeLa cells, and whole mice. This lysate was run over an ATP-Sepharose™ column in order to extract all purine-binding proteins. […] The ATP-Sepharose™ washed several times, and then eluted with methotrexate at concentrations ranging from 10 nM to 500 μM to identify proteins that bound to this compound. The eluted fractions were run on a 1-dimensional SDS polyacrylamide gel. The eluted proteins were then stained with silver stain, cut out of the gel, and identified using matrix-assisted laser deionization/ionization (MALDI)."}, "acetyl-CoA carboxylase": {"tested_on": "acetyl-CoA carboxylase", "test": "Elution of purine-binding proteins from ATP-Sepharose column with the compound", "design": "species or system porcine liver, porcine lidney, HeLa cells, whole mice", "conditions": "lysate on ATP-Sepharose; methotrexate 10 nM to 500 μM; SDS gel, silver stain, MALDI", "protocol": "as §2"}, "[2]": {"tested_on": "methylcrotonyl-CoA carboxylase", "test": "Elution of purine-binding proteins from ATP-Sepharose column with the compound", "design": "species or system porcine liver, porcine lidney, HeLa cells, whole mice", "conditions": "lysate on ATP-Sepharose; methotrexate 10 nM to 500 μM; SDS gel, silver stain, MALDI", "protocol": "as §2"}, "[3]": {"tested_on": "the same proteins that were eluted from ATP-Sepharose with methotrexate", "test": "Elution of lysate proteins from methotrexate covalently linked to agarose", "type": "binding, porcine liver, porcine lidney, HeLa cells, whole mice", "conditions": "lysates applied to methotrexate covalently linked to agarose", "protocol": "as §2"}, "GART": {"tested_on": "GART", "test": "Elution of purine-binding proteins from ATP-Sepharose column with the compound", "conditions": "lysate on ATP-Sepharose; methotrexate 10 nM to 500 μM; SDS gel, silver stain, MALDI", "protocol": "as §1"}},
  "data": [
    {"compound": "CN(Cc1cnc2nc(N)nc(N)c2n1)c1ccc(C(=O)N[C@@H](CCC(=O)O)C(=O)O)cc1", "note": "[methotrexate]", "values": [
      {"measurement": "DHFR eluted from ATP-Sepharose by the compound (indicates binding)", "setting": "DHFR", "result": "eluted"},
      {"measurement": "glutathione synthase eluted from ATP-Sepharose by the compound (indicates binding)", "setting": "glutathione synthase", "result": "eluted"},
      {"measurement": "pyruvate carboxylase eluted from ATP-Sepharose by the compound (indicates binding)", "setting": "pyruvate carboxylase", "result": "eluted"},
      {"measurement": "propionyl-CoA carboxylase eluted from ATP-Sepharose by the compound (indicates binding)", "setting": "[1]", "result": "eluted"},
      {"measurement": "biotin carboxylase eluted from ATP-Sepharose by the compound (indicates binding)", "setting": "biotin carboxylase", "result": "eluted"},
      {"measurement": "acetyl-CoA carboxylase eluted from ATP-Sepharose by the compound (indicates binding)", "setting": "acetyl-CoA carboxylase", "result": "eluted"},
      {"measurement": "methylcrotonyl-CoA carboxylase eluted from ATP-Sepharose by the compound (indicates binding)", "setting": "[2]", "result": "eluted"},
      {"measurement": "same proteins eluted from methotrexate-agarose with methotrexate (confirmation of targets)", "setting": "[3]", "result": "also eluted from methotrexate agarose with methotrexate"},
      {"measurement": "GART eluted from ATP-Sepharose by the compound (indicates binding)", "setting": "GART", "result": "eluted"}
    ]}
  ]
}
